Data published in PubChem BioAssay (NCI).
Where “and” joins values, the source holds several entries; their conditions need not be identical. Equal entries are not always repeated.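 Where inhibition never reached the appropriate level, the endpoint shown equals the highest concentration tested. Otherwise, values were interpolated linearly from a five-concentration, 48-hour dose response in 96-well plates. GI50: concentration for 50% inhibition of growth. At the TGI there is no net growth.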

Assays:
Test in all cases: growth of human tumour cells (NCI), 48 h
[1] = tested on: IGROV1 ovarian
[2] = tested on: SNB-75 CNS
[3] = tested on: CAKI-1 renal
[4] = tested on: NCI-H226 lung
[5] = tested on: HOP-62 NSCLC
[6] = tested on: MALME-3M melanoma
[7] = tested on: UACC-257 melanoma
[8] = tested on: NCI/ADR-RES ovarian
[9] = tested on: A498 renal
[10] = tested on: MDA-MB-231 breast

Structure (SMILES)	TGI [1]	TGI [2]	TGI [3]	TGI [4] [µM]	TGI [5] [µM]	TGI [6]	TGI [7] [µM]	TGI [8]	TGI [9]	TGI [10] [µM]	GI50 [1]	GI50 [2]	GI50 [3]	GI50 [5]	GI50 [6]	GI50 [9]	GI50 [4] [µM]	GI50 [8] [µM]	GI50 [10] [µM]
O=[N+]([O-])c1ccc2nc(-c3ccccn3)c(-c3ccccn3)nc2c1	> 100 µM	> 100 µM	> 100 µM	> 100	> 100	> 100 µM	> 100	> 100 µM	> 100 µM										
Cn1nc2n(c1=O)CCCN2	> 100 µM	> 100 µM		> 100	> 100	> 100 µM	> 100	> 100 µM	> 100 µM	> 100									
Cc1ccc(C(=O)O)c(CC2Cc3c(C)cccc3C2=O)c1 (stereo not drawn)	> 100 µM	> 100 µM	> 100 µM	> 100	> 100	> 100 µM	> 100	> 100 µM		> 100									
C[C@@H](O)C(=O)N1[C@@H]2CC3CC[C@]2(CS1(=O)=O)C3(C)C	> 100 µM	> 100 µM	> 100 µM	65.3	> 100		> 100	> 100 µM		> 100									
OCC1OC(n2cnc3cncnc32)C(O)C1O (stereo not drawn)	4.81 µM	2.15 µM	2.68 µM	3.33	6.84	4.73 µM	3.75	2.25 µM	3.69 µM										
Cc1ccc(C(C)(C)C[P+](C)(c2ccccc2)c2ccccc2)cc1	> 100 µM	50.8 µM	> 69.2 µM	> 85.3	75.9	> 48.8 µM	> 26.7	> 100 µM	> 100 µM										
O=C1CCC2(CCO1)OCCO2	> 100 µM	> 100 µM	> 100 µM	> 100	> 100	> 100 µM	> 100	> 100 µM		> 100									
CCOC(=O)c1c(N2CCCC2)ncn(-c2ccccc2)c1=S	> 100 µM	> 100 µM		> 100	> 100	> 100 µM	> 100	> 100 µM	> 100 µM										
[Cl][Pt+2][Cl].[NH-]C1CCCCC1[NH-] (stereo not drawn)	> 100 µM and 45.8 µM	97.6 µM and > 77.9 µM and 71 µM	> 53 µM and > 100 µM and 18.1 µM		> 100	32.4 µM and 24 µM and 7.45 µM	> 96.6	> 60.6 µM and > 100 µM and 13.1 µM	> 100 µM and 65.3 µM		18.9 µM and 9.23 µM and 2.45 µM	25.1 µM and 19.6 µM and 3.41 µM	1.44 µM and 3.52 µM and 0.769 µM	53.7 µM and > 100 µM and 22.3 µM	10.2 µM and 3.39 µM and 1.14 µM	> 100 µM and 12.6 µM			
CO/C(=N\N=C\c1cccc(Cl)c1)c1ccncc1			> 10 µM	> 10	> 10	> 10 µM	> 10	> 10 µM		> 10									
COC(=O)C1CCC(=O)N1C(=O)Cc1ccc(OC)cc1 (stereo not drawn)	> 100 µM	> 100 µM	> 100 µM	> 100			> 100		> 100 µM										
Clc1ccc(Cc2nc3ccccc3nc2-c2cccc(Br)c2)cc1	3.49 µM	35.7 µM	5.1 µM	33.1	36.1	22.5 µM	7.7	15.3 µM		14.1									
O=C(NCc1cccc(C(F)(F)F)c1)c1cc2sccc2nc1C(F)(F)F	> 100 µM		> 100 µM	> 100	> 100	> 100 µM	> 100	> 100 µM		> 100									
Nc1ncnc2c1ncn2C1CCC(COS(N)(=O)=O)C1 (stereo not drawn)	> 100 µM	> 100 µM	> 100 µM	> 100	> 100	> 100 µM	> 100	> 100 µM		> 100									
N#Cc1nc(CCCCCN2C(=O)c3ccccc3C2=O)oc1N	> 100 µM		> 100 µM	> 100	> 100	> 100 µM	> 100	> 100 µM		> 100									
Clc1ccc(N2N=C(c3cccc(Nc4ccncc4)c3)CC2c2ccc3c(c2)OCO3)cc1 (stereo not drawn)	3.67 µM	5.68 µM	2.9 µM	33.1				3.17 µM		2.64	1.73 µM	1.58 µM	1.44 µM				7.28	1.64	1.29
CC(=O)OCC1OC(n2c3c(c(-c4cccc5ccccc45)c(C#N)c2=S)CCCC3)C(OC(C)=O)C(OC(C)=O)C1OC(C)=O (stereo not drawn)	> 100 µM			> 100	> 100	> 100 µM	> 100	> 100 µM	> 100 µM	> 100									
CC(C)=CCC/C(C)=C/CC/C(C)=C/Cc1c(O)c2ccccc2oc1=O	> 100 µM	> 100 µM		> 100	> 100	> 100 µM	> 100												
Cc1cc(=O)n2nc(SCc3ccccc3)sc2n1	> 100 µM	> 100 µM		> 100	> 100	> 100 µM		> 100 µM	> 100 µM	> 100									
O=CC(O)C(O)C(O)C(O)C(=O)NCCCCCCCCCCCCNC(=O)C(O)C(O)C(O)C(O)C=O (stereo not drawn)	> 100 µM			> 100	> 100	> 100 µM	> 100	> 100 µM	> 100 µM	> 100									
